From PMC7531004, “Discovery of gramicidin A analogues with altered activities by multidimensional screening of a one-bead-one-compound library” (Nature Communications, 2020)
Several values for one entry are separate records, joined by “and”; a condition that tells them apart may be missing. Equal entries are not always repeated. Where a SMILES comes first, the peptide text is derived from it. [ ]: non-standard residue; d: D form. The star is where a group is joined. NHCH2CH2OH = OCCN*; For = O=C*

Experiments:
[1] = tested on: rabbit red blood cells; settings: red cells of rabbit, 2 h
Procedure: Second, we examined the cytotoxicity toward mammalian cancer cells and hemolytic activity of 1. […] Hemolytic activity was evaluated by monitoring hemoglobin leakage from rabbit red blood cells as a consequence of membrane damage. The concentration of 1 required to cause 10% hemoglobin leakage (HC10) was 160 nM. Thus, the P388 cytotoxicity of 1 was 28-fold more sensitive than its hemolytic activity.
Hemolysis assay of purified peptides. […]
with DMSO to various concentrations as 3-fold serial dilution. A 50% suspension of rabbit blood in Alsever's solution was obtained from Nippon Bio -Supp. Center . The blood suspension (250 µL) w as diluted with phosphate buffered saline (no calcium, no magnesium, 1.00 mL). The resultant suspension was centrifuged at 1000 × g for 3 min at 8 °C. The supernatant was discarded, and the collected cells were resuspended in phosphate buffered saline (no calcium, no magnesium, 1.00 mL). The same procedure was repeated (× 3). The resultant suspension (100 µL) was diluted with phosphate buffered saline (no calcium, no magnesium, 4.90 mL) to give 0.2% red blood cells suspension. The 0.2% red blood cells suspension (95.0 µL) and each dilution series of the purified peptide in DMSO (5 .0 µL) were mixed in 2 mL microtube.
supernatant was transferred to a 96-well plate (TR5003, TrueLine). The absorbance of each well at 415 nm was measured using a Thermo Scientific Multiskan GO (Thermo Fisher Scientific). The mixture of Triton X-100/H2O (5/95, 2.0 µL), DMSO (5.0 µL), and the 0.2% red blood cells suspension (95.0 µL) was used to determine 100% hemolysis. The mixture of DMSO (5.0 µL) and the 0.2% red blood cells suspension (95.0 µL) was used to determine 0% hemolysis. The hemolytic activities of tested peptides ( I) were normalized against 100% hemolysis by Triton X -100 (Imax) and 0% hemolysis by DMSO (I0) according to Supplementary Equation 3, where Ix is the UV absorbance.
I = 100 × (Ix – I0) / (Imax – I0) (3)
The hemolytic activities of the purified peptides were evaluated as the concentrations causing 10% hemolysis (HC10, nM) by means of three replicates. Sigmoidal curve fittings were performed on GraphPad Prism (GraphPad software, Supplementary Figure 7).

[2] = tested on: Enterococcus faecalis JCM5803; settings: for antibacterial activity/MIC: E. faecalis; for Antibacterial activity MIC: JCM5803
Procedure: (§1) Third, 1 was subjected to five pathogenic Gram-positive bacteria.
(§2) Evaluation of antibacterial spectra of purified peptides. The MIC assay was performed according to the Clinical and Laboratory Standards Institute protocols. The antibacterial activities of the purified peptides A1, B01–B04, B11–B13, B21, and B22 were measured using the broth microdilution method. 6 Serial dilutions of the peptides were prepared in cation adjusted Mueller Hinton Broth. Each dilution (100 µL) was dispensed to each well of the round-bottom plate to obtain final concentrations ranging from 64 µg/mL to 0.00024 µg/mL. Bacteria were grown at 37 °C overnight on Tryptic Soy Broth or Mueller Hinton Broth agar plates.
(§3) The bacterial colonies were suspended in 0.9% saline to obtain OD 625 of 0.08–0.13 using a spectrophotometer UV-1280 (Shimadzu). The resultant suspension was diluted with cation adjusted Mueller Hinton Broth (1/20). The resultant mixture (10 .0 µL) was inoculated to each well of the plates (approximately 5 × 10^4 CFU/well), mixed, and incubated at 37 °C for 18–24 h. The MIC value was determined as the minimum concentration that inhibited growth of bacteria. For Streptococcus species, cation adjusted Mueller Hinton Broth supplemented with 5% laked horse blood was used. […]

[3] = tested on: Listeria monocytogenes 10403S; settings: for Antibacterial activity MIC: 10403S; for antibacterial activity/MIC: L. monocytogenes
Procedure: as §1, §2, §3

[4] = tested on: Streptococcus agalactiae JCM5671; settings: for Antibacterial activity MIC: JCM5671; for antibacterial activity/MIC: S. agalactiae
Procedure: as §1, §2, §3

[5] = tested on: Streptococcus pneumoniae NBRC 102642; settings: for Antibacterial activity MIC: NBRC 102642; for antibacterial activity/MIC: S. pneumoniae
Procedure: as §1, §2, §3

[6] = tested on: Streptococcus pyogenes SSI-9; settings: for antibacterial activity/MIC: S. pyogenes; for Antibacterial activity MIC: SSI-9
Procedure: as §1, §2, §3

[7] = tested on: MSSA1 (methicillin-susceptible Staphylococcus aureus); assay type: cell-based
Procedure: as §2, §3

[8] = Membrane disruption assay of purified peptides (carboxyfluorescein leakage); assay type: biochemical; design: key: % lysis; Triton X-100 = 100%, DMSO = 0%; settings: three replicate lines
Procedure: Membrane disruption assay of purified peptides. 5(6)-Carboxyfluorescein (CF)-encapsulated large […]
through Nuclepore polycarbonate filters mounted in the mini-extruder apparatus. A solution of egg yolk phosphatidylcholine (EYPC, 22.0 mg, 28.9 µmol) in CHCl3 (225 µL) and egg yolk phosphatidylglycerol (1.2 0 […]
mM HEPES, 100 mM NaCl, 20 mM CF) by sonication. After five -times freeze-thaw cycles, the lipid […]
concentration of the resultant CF -encapsulated LUV suspension was deduced from the phosphatidylcholine concentration determined by using Phospholipid C -Test Wako. The lipid concentration of the LUV […]
as 5-fold serial dilution. The solution of peptide (2.0 µL) and the CF-encapsulated LUV suspension (200 […]
The resultant suspension was incubated at room temperature for 30 min. The fluorescence (Ex. 490 nm/Em. 517 nm) of each well was measured on Gemini EM microplate reader. Triton X-100/H2O (5/95, 3.0 µL), DMSO (2.0 µL), and the LUV suspension were mixed in each plate to determine 100% lysis. […]
was used to determine 0% lysis. The membrane disruption activities of tested peptides ( I) were normalized against 100% lysis by Triton X-100 (Imax) and 0% lysis by DMSO ( I0) according to Supplementary Equation 2 , where Ix is the fluorescence intensity.
The membrane disruption activities of the purified peptides were plotted as means of three replicates (Supplementary Figure 1).

| Structure (SMILES) | Hemolytic activity HC10 (concentration causing 10% hemolysis) [1] | antibacterial activity/MIC [2] | Antibacterial activity MIC [2] | Antibacterial activity MIC [3] | antibacterial activity/MIC [3] | Antibacterial activity MIC [4] | antibacterial activity/MIC [4] | Antibacterial activity MIC [5] | antibacterial activity/MIC [5] | antibacterial activity/MIC [6] | Antibacterial activity MIC [6] | antibacterial activity/MIC [7] | Supplementary Figure 1 dose-response value ([8]; concentration 0.000512 nM) | Supplementary Figure 1 dose-response value ([8]; concentration 0.00256 nM) | Supplementary Figure 1 dose-response value ([8]; concentration 0.0128 nM) | Supplementary Figure 1 dose-response value ([8]; concentration 0.064 nM) | Supplementary Figure 1 dose-response value ([8]; concentration 0.32 nM) | Supplementary Figure 1 dose-response value ([8]; concentration 1.6 nM) | Supplementary Figure 1 dose-response value ([8]; concentration 8 nM) | Supplementary Figure 1 dose-response value ([8]; concentration 40 nM) | also measured |
| --- | --- | --- | --- | --- | --- | --- | --- | --- | --- | --- | --- | --- | --- | --- | --- | --- | --- | --- | --- | --- | --- |
| CC(C)C[C@@H](NC(=O)[C@H](C)NC(=O)CNC(=O)[C@@H](NC=O)C(C)C)C(=O)N[C@@H](C)C(=O)N[C@@H](C(=O)N[C@H](C(=O)N[C@@H](C(=O)N[C@@H](Cc1c[nH]c2ccccc12)C(=O)N[C@H](CC(C)C)C(=O)N[C@@H](Cc1c[nH]c2ccccc12)C(=O)N[C@H](CC(C)C)C(=O)N[C@@H](Cc1c[nH]c2ccccc12)C(=O)N[C@H](CC(C)C)C(=O)N[C@@H](Cc1c[nH]c2ccccc12)C(=O)NCCO)C(C)C)C(C)C)C(C)C [compound 1, Gramicidin A] (For-VGA[dL]A[dV]V[dV]W[dL]W[dL]W[dL]W-NHCH2CH2OH) | 160 nM | 0.5 µg/mL | 0.27 µM | 4.3 µM | 8 µg/mL | 1.1 µM | 2 µg/mL | 0.0083 µM | 0.016 µg/mL | 0.063 µg/mL | 0.033 µM | 32 µg/mL | 1.36 and 3.869 and -1.044 | 3.2 and 1.0665 and -1.239 | 3.406 and 6.277 and 1.505 | 4.522 and 0.6394 and 10.119 | 0.03727 and -1.4564 and 8.0175 | 1.309 and 1.672 and 5.415 | 11.9937 and 6.964 and 7.105 | 14.5572 and 22.409 and 17.147 | Supplementary Figure 1 dose-response value ([8]; concentration 200 nM): 26.5638 and 29.1236 and 30.6096; Supplementary Figure 1 dose-response value ([8]; concentration 1000 nM): 36.4056 and 34.1405 and 30.0737; Supplementary Figure 1 dose-response value ([8]; concentration 5000 nM): 57.2698 and 45.8291 and 46.6701 |
| CNC(=O)C[C@@H](NC(=O)[C@@H](NC(=O)[C@@H](CC(C)C)NC(=O)[C@H](C)NC(=O)[C@@H](CC(C)C)NC(=O)[C@H](C)NC(=O)CNC(=O)[C@@H](NC=O)C(C)C)C(C)C)C(=O)N[C@@H](Cc1c[nH]c2ccccc12)C(=O)N[C@H](CC(C)C)C(=O)N[C@@H](Cc1c[nH]c2ccccc12)C(=O)N[C@H](CC(C)C)C(=O)N[C@@H](Cc1c[nH]c2ccccc12)C(=O)N[C@@H](C(=O)N[C@@H](Cc1c[nH]c2ccccc12)C(=O)NCCO)[C@H](C)O [B22] (For-VGA[dL]A[dL]V[dD](NHMe)W[dL]W[dL]W[dT]W-NHCH2CH2OH) | > 3000 nM | 64 µg/mL | 33 µM | > 33 µM | > 64 µg/mL | > 33 µM | > 64 µg/mL | 1 µM | 2 µg/mL | > 64 µg/mL | > 33 µM | > 64 µg/mL | 5.233 and 5.708 and 3.745 | 6.399 and 0.9122 and 2 | 2.405 and 9.3526 and 2.534 | 4.116 and 2.091 and 9.6371 | 3.439 and -1.283 and 7.2259 | 12.4052 and 7.371 and 12.8868 | 24.0812 and 19.193 and 19.2236 | 21.9455 and 34.569 and 23.6152 | Supplementary Figure 1 dose-response value ([8]; concentration 200 nM): 30.6863 and 31.8474 and 39.9799; Supplementary Figure 1 dose-response value ([8]; concentration 1000 nM): 57.1747 and 48.6012 and 49.2408; Supplementary Figure 1 dose-response value ([8]; concentration 5000 nM): 70.9515 and 65.7371 and 71.376 |
| CC(C)C[C@@H](NC(=O)[C@H](Cc1c[nH]c2ccccc12)NC(=O)[C@@H](CC(C)C)NC(=O)[C@H](Cc1c[nH]c2ccccc12)NC(=O)[C@@H](CC(C)C)NC(=O)[C@H](Cc1c[nH]c2ccccc12)NC(=O)[C@H](NC(=O)[C@@H](NC(=O)[C@H](NC(=O)[C@H](C)NC(=O)[C@H](NC(=O)[C@H](C)NC(=O)CNC(=O)[C@@H](NC=O)C(C)C)C(C)C)C(C)C)C(C)C)C(C)C)C(=O)N[C@@H](Cc1c[nH]c2ccccc12)C(=O)NCCO [A1] (For-VGA[dV]A[dV]V[dV]W[dL]W[dL]W[dL]W-NHCH2CH2OH) | 240 nM | 0.25 µg/mL | 0.13 µM | 1.1 µM | 2 µg/mL | 0.54 µM | 1 µg/mL | 0.001 µM | 0.0019 µg/mL | 0.015 µg/mL | 0.008 µM | 8 µg/mL | 15.596 and 11.1897 and 18.8476 | 19.0421 and 18.9023 and 11.8141 | 18.8248 and 18.451 and 13.318 | 5.787 and 7.036 and 10.8676 | 6.642 and 18.6722 and 17.2971 | 5.416 and 5.449 and 6.466 | 18.3076 and 19.5293 and 5.647 | 20.3219 and 7.57 and 17.0093 | Supplementary Figure 1 dose-response value ([8]; concentration 200 nM): 24.2624 and 22.7393 and 19.0922; Supplementary Figure 1 dose-response value ([8]; concentration 1000 nM): 20.1834 and 27.4358 and 26.1069; Supplementary Figure 1 dose-response value ([8]; concentration 5000 nM): 74.0004 and 66.4045 and 47.3037 |
